Experimental data published in patent US20220062299A1, “USE OF GLUCOCORTICOID STEROIDS IN PREVENTING AND TREATING CONDITIONS OF MUSCLE WASTING, AGING AND METABOLIC DISORDER” (NORTHWESTERN UNIVERSITY, priority 2018, published 2022).

Columns and labels:
[1] = system: Duchenne muscular dystrophy boys; set-up: dose or concentration left out as unconfirmed; conditions: cited from earlier work
[2] = system: mdx; Dysf-null; Sgcg-null mice; test: Once-weekly glucocorticoids in three murine models of muscle disease; type: in vivo, mouse; conditions: 1 mg/kg once-weekly, contrary to daily dosing
From the text: Glucocorticoid steroids are widely prescribed drugs for chronic inflammatory conditions, and their daily intake generally correlates with muscle wasting and weakness, osteoporosis, obesity and metabolic disorders. […] (Quattrocelli et al, J Clin Invest 2017; Quattrocelli et al, Am J Pathol 2017; Quattrocelli et al., JCI Insight. 2019 Dec. 19; 4(24). pii: 132402. doi: 10.1172/jci.insight.132402).

CC/C=C\C/C=C\C/C=C\C/C=C\C/C=C\C/C=C\CCC(=O)NCCNC(=O)c1ccccc1O [Edasalonexent]
muscle disease progression [1]: delayed

CC(=O)OCC(=O)[C@@]12N=C(C)O[C@@H]1C[C@H]1[C@@H]3CCC4=CC(=O)C=C[C@]4(C)[C@H]3[C@@H](O)C[C@@]12C [deflazacort]
muscle force and mass [2]: improved
